Reference: article PMC8070144, “The YfkO Nitroreductase from Bacillus Licheniformis on Gold-Coated Superparamagnetic Nanoparticles: Towards a Novel Directed Enzyme Prodrug Therapy Approach” (Pharmaceutics, 2021)

What was measured:
[1] = system: T1, YfkO-cys; assay: absorbance at […] nm, hydroxylamine product formation, plate reader; assay type: biochemical, Bacillus licheniformis; conditions: free enzyme; NADH 400 µM; 50 mM phosphate pH 7.2; 37 °C; CB1954 0.1-10 mM
T1 construct: recombinant, pET28a(+) in E. coli Rosetta BL21(DE3) (printed B21 DE3); N-terminal Cys tag and His tag kept; Ni IMAC, FMN-saturated, PD10 desalted

[2] = molecular target: T2, NfnB-cys (Escherichia coli, UniProt P38489); assay: UV-Vis spectra with time, product at […] nm; assay type: biochemical; conditions: free enzyme; CB1954 100 µM; 50 mM phosphate pH 7.2; cofactor NADH in results (NADPH 300 µM in methods)
T2 construct: gene nfsB; recombinant, pET28a(+) in E. coli Rosetta BL21(DE3) (printed B21 DE3); N-terminal Cys tag and His tag kept; Ni IMAC, FMN-saturated, PD10 desalted

[3] = molecular target: T2, NfnB-cys; assay: UV-Vis spectra with time, NADH oxidation at […] nm; assay type: biochemical; conditions: free enzyme; CB1954 100 µM; 50 mM phosphate pH 7.2; methods print NADPH, results print NADH

T2 sequence (P38489 whole entry): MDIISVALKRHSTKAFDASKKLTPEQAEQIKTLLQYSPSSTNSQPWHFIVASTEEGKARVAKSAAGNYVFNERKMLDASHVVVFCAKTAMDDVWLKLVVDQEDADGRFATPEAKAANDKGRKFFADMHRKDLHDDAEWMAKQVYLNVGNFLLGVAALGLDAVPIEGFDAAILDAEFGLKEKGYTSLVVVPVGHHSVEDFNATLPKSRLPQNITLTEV

With `NC(=O)c1cc(N2CC2)c([N+](=O)[O-])cc1[N+](=O)[O-]` [compound 1, 5-(aziridin-1-yl)-2,4-dinitrobenzamide] the Km [1] was 830 ± 250 µM and the “UV-Vis spectra with time, product at 420 nm” value [2] was “scans obtained for NfnB-cys, free and immobilised, were almost identical to these”.
`NC(=O)C1=CN([C@@H]2O[C@H](COP(=O)(O)OP(=O)(O)OC[C@H]3O[C@@H](n4cnc5c(N)ncnc54)[C@H](O)[C@@H]3O)[C@@H](O)[C@H]2O)C=CC1` [NADH] was tested, and the “UV-Vis spectra with time, NADH oxidation at 340 nm” value [3] was “scans obtained for NfnB-cys, free and immobilised, were almost identical to these”.
